Biological target: T1, human SSAO T2 (Met211-Asn763), C-terminal 6xHIS tag (Homo sapiens, UniProt Q16853)
T1 construct: T2 (Met211-Asn763) Representing the Putative Catalytic Domain; expressed in transfected cells; cell lysate
T1 sequence (Q16853 211-763): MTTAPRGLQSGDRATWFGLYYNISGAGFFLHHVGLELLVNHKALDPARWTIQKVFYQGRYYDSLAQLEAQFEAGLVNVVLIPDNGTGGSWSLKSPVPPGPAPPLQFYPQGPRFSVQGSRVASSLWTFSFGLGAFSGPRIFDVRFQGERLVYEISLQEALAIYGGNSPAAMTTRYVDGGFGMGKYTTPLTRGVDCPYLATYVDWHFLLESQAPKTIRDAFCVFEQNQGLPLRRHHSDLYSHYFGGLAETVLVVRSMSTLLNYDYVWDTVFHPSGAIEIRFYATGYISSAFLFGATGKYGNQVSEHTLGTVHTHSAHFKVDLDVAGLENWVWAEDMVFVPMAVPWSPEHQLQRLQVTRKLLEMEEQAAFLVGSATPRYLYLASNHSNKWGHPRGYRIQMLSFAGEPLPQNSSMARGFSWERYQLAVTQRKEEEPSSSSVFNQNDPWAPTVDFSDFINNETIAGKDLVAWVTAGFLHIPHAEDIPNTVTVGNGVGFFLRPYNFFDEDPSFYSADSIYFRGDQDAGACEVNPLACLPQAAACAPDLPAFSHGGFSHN
Assay: Benzylamine stability in lysate of cells expressing T2 SSAO with C-terminal 6xHIS tag, LC/MS/MS
Format: in vitro ADME
Method: 4) T2 (Met211-Asn763) Representing the Putative Catalytic Domain.
The expression constructs were prepared by cloning these PCR products into the pCDNA5-FRT-To-DEST vector (Invitrogen, Gateway System™). The forward and reverse DNA sequence of each construct was confirmed including expressed sequences and at least 100 base pairs either side of this. Stable cell lines for Flp-In CHO, Flp-In CHO T-Rex, and Flp-In HEK 293 (Invitrogen, Flp-In system™) were generated using these 6 constructs according to manufacturer's instructions. Cells were co-transfected with the regulatory vector, pOG44, and each of the pCDNA5-FRT-To-DEST constructs using Lipfectamine (Invitrogen) according to manufacturer's instructions. Thus, 18 cell lines were generated: CHO Flp-In full-length SSAO; CHO Flp-In full-length SSAO with C-terminal 6×HIS tag; CHO Flp-In T1 SSAO; CHO Flp-In T1 SSAO with C-terminal 6×HIS tag; CHO Flp-In T2 SSAO; CHO Flp-In T2 SSAO with C-terminal 6×HIS tag; CHO T-Rex Flp-In full-length SSAO; CHO T-Rex Flp-In full-length SSAO with C-terminal 6×HIS tag; CHO T-Rex Flp-In T1 SSAO; CHO T-Rex Flp-In T1 SSAO with C-terminal 6×HIS tag; CHO T-Rex Flp-In T2 SSAO; CHO Flp-In T2 SSAO with C-terminal 6×HIS tag; HEK 293 Flp-In full-length SSAO; HEK 293 Flp-In full-length SSAO with C-terminal 6×HIS tag; HEK 293 Flp-In T1 SSAO; HEK 293 Flp-In T1 SSAO with C-terminal 6×HIS tag; HEK 293 Flp-In T2 SSAO; HEK 293 Flp-In T2 SSAO with C-terminal 6×HIS tag.
Adherent CHO cells were cultured at 37° C., 5% CO2 in media containing Ham's F12, 10% fetal bovine serum, 2 mM L-glutamine, 1% Penicillin/Streptomycin, 300 μM hygromycin B. Adherent HEK 293 cells were cultured at 37° C., 5% CO2 in D-MEM (high glucose), 10% fetal bovine serum, 2 mM L-glutamine, and 200 μM hygromycin B. Stable transformants were identified by loss of zeocin resistance. Once the cells were 80% confluent, SSAO expression was induced by the addition of Tetracycline to 1 μg/mL. Following 18 hours, the cells were harvested using a trypsin treatment of 3 minutes, at room temperature. Cells were washed 3 times in phosphate buffered saline before flash freezing in liquid nitrogen.
For the preparation of cell lysate for activity testing, frozen cell pellets were resuspended in lysate buffer containing 10 mM Tris-HCl (pH 7.2), 150 mM NaCl, 1.5 mM MgCl2, 1% v/v NP-40 and incubated for 15 minutes on ice. Lysate was cleared by centrifugation 800×g for 10 minutes, 4° C. and stored in aliquots at −80° C. until use. Proteins were determined using Pierce Coomassie Protein Reagent, according to manufacturer's instructions.
For each assay run, 1 mL of cell lysate (1.5 mg/mL protein) was mixed with benzylamine to 2000 ng/mL final concentration. At each corresponding time point, […] the incubation mixture was transferred to a microcentrifuge tube (1.7 mL) and mixed with 50 μL of acetonitrile. The tubes were vortex mixed briefly to ensure complete mixing and then centrifuged at 10,000×g for 5 minutes. The supernatant was removed and 50 μL was transferred to an autosampler vial and mixed with 50 μL of water before LC/MS/MS analysis. Benzylamine remaining in the lysate was analyzed with LC/MS/MS method.
LC/MS/MS analysis was performed with a PE Sciex API 3000 mass spectrometer under the following conditions listed below and in Tables 1 and 2: […]

NCc1ccccc1 [Benzylamine]
Benzylamine Remaining (%) (CHO Flp-In T-Rex lysate, 0 min): 100%
Benzylamine Remaining (%) (CHO Flp-In T-Rex lysate, 10 min): 100%
Benzylamine Remaining (%) (CHO Flp-In T-Rex lysate, 2 h): 97%
Benzylamine Remaining (%) (CHO Flp-In lysate, 0 min): 100%
Benzylamine Remaining (%) (CHO Flp-In lysate, 10 min): 108%
Benzylamine Remaining (%) (CHO Flp-In lysate, 2 h): 102%
Benzylamine Remaining (%) (HEK293 lysate, 0 min): 100%
Benzylamine Remaining (%) (HEK293 lysate, 10 min): 100%
Benzylamine Remaining (%) (HEK293 lysate, 2 h): 117%
